Legend:
Assay type in all cases: cell-based, human
HCT116 = experiment: combination with BIBR1532, relative growth by ATPlite
Experimental: 10,000 HCT116 cells were seeded in 100 µl of McCoy's 5a medium supplemented with 10% Fetal Bovine Serum, 2 mM L-Glutamine and Penicilin/Streptomycin 200 U/l for 1 day in 96well plate and treated with 10 µM BIBR1532, 0.25 µM of iKU-1 or their combination for 4 days. Number of viable cells was measured by ATPlite kit (Perkin Elmer) and normalized to the treatment with 0.5% DMSO. The results presented in Table 2 show a synergistic effect of iKU-1 and BIBR1532 on the growth of HCT116 tumor cell line. Values in the table indicate relative growth assessed by ATPlite kit compared to the control sample treated with 0.5% DMSO after 4 days of treatment.

HCT116 cells [1] = experiment: C-circle assay (extrachromosomal circular telomeric DNA); conditions: C-circle assay in HCT116 cells treated for 3 to 7 days
Experimental: HCT116 cell were incubated for 3, 5 or 7 days in McCoy's 5a medium with 10% Fetal Bovine Serum, 2 mM L-Glutamine and Penicilin/Streptomycin 200 U/l each and supplemented with Compound 1-9. C-circle assay that utilizes rolling circle amplification of circular DNA by φ29 polymerase was performed as described in Henson, J.D., Lau, L.M., Koch, S., Martin La Rotta, N., Dagg, R.A., and Reddel, R.R. (2017). The C-Circle Assay for alternative-lengthening-of-telomeres activity. Methods 114, 74-84. Amplified circular telomeric DNA was detected by dot blot hybridization with P^32-labeled telomeric DNA oligonucleotide (5'-[…]-3' (SEQ ID NO: 6)) (Figure 4).

HCT116 cells [2] = experiment: flow cytometry analysis of DNA content (cell cycle); conditions: HCT116 incubated for two days
Experimental: HCT116 cells were incubated for two days in McCoy's 5a medium supplemented with 10% Fetal Bovine Serum, 2 mM L-Glutamine and Penicilin/Streptomycin 200 U/l each in the presence of iKU-1, harvested and fixed in cold 70% ethanol. Cells were recovered in PBS solution and resuspended in 200 µl of Vindel solution containing propidium iodide and RNAse A, and nuclear DNA content was measured by flow cytometry (Beckton Dickinson FACS Verse). Accumulation of cells in S-phase is apparent already after two days of the iKU-1 treatment.

HCT116 cells [3] = experiment: Telomere Shortest Length Assay; conditions: HCT116 treated for two days, compared with untreated control
Experimental: iKU-1 induces rapid shortening of telomeres (Figure 6). HCT116 cells were treated for two days with iKU-1 and telomere size was measured by Telomere Shortest Length Assay as described in Lai, T.P., Zhang, N., Noh, J., Mender, I., Tedone, E., Huang, E., Wright, W.E., Danuser, G., and Shay, J.W. (2017). A method for measuring the distribution of the shortest telomeres in cells and tissues. Nat Commun 8, 1356, whereby individual telomeres are PCR-amplified, separated by agarose gel electrophoresis and detected by Southern hybridization with P^32-labeled telomeric DNA oligonucleotide (5'-[…]-3' (SEQ ID NO: 6)).

HCT116 cells [4] = experiment: DNA damage induction, immunodetection of γH2AX in nuclei; conditions: HCT116 incubated for 1 day
Experimental: iKU-1 induces DNA damage in treated cells (Figure 3). HCT116 cells were incubated for 1 day in McCoy's 5a medium with 10% Fetal Bovine Serum, 2 mM L-Glutamine and Penicilin/Streptomycin 200 U/l each and supplemented with iKU-1. DNA damage induction was assessed by immunodetection of yH2AX in nuclei with specific antibody (Anti-phospho-Histone H2A.X (Ser139) Antibody, clone JBW301, Merck; dilution 1:500) and Alexa Fluor-conjugated secondary antibody (Goat anti-Mouse IgG (H+L) Highly Cross-Adsorbed Secondary Antibody, Alexa Fluor™ Plus 647, Invitrogen/Thermofisher; dilution 1:500).

A2780 = experiment: growth of A2780 cells by ATPlite, alone and in combination with Bleomycin
Experimental: 2,000 A2780 cells were seeded in 100 µl of RPMI 1640 medium with 300 mg/l L-Glutamine and 10% Fetal Bovine Serum for 1 day in 96well plate and treated by 0.025 µg/ml of Bleomycin, 0.5 µM of iKu-1 or their combination for 7 days. Number of viable cells was measured by ATPlite kit (Perkin Elmer) and normalized to the treatment with 0.5% DMSO.
Values in the table indicate relative growth assessed by ATPlite kit compared to the control sample treated with 0.5% DMSO after 7 days of treatment.
2,000 SKOV3 and A2780 cells were seeded in 100 µl of McCoy's 5a or RPMI 1640 media, respectively, for one day and then incubated with iKU-1 for 7 days. Number of viable cells was measured by ATPlite kit (Perkin Elmer) and normalized to the treatment with 0.5% DMSO.

## O=C(Nc1nc(-c2ccccn2)cs1)c1cncc(Br)c1 [Compound 1]
HCT116; HCT116, 10 µM BIBR1532 with 0.25 µM iKU-1, 4 days
  interaction with BIBR1532 on growth: synergism
HCT116; HCT116, 10 µM BIBR1532, 0.25 µM iKU-1 or their combination, 4 days
  relative growth assessed by ATPlite kit compared to the control sample treated with 0.5% DMSO: 1.17
HCT116 cells [1]
  Concentration inducing c-circle formation: 1 µM
HCT116 cells [2]
  cell cycle effect: cell cycle arrest in S-phase
HCT116 cells [3]
  size of telomeres: relative decrease in the size of telomeres
HCT116 cells [4]
  DNA damage induction (γH2AX signal): formation of either nuclear foci or whole nuclear staining in a subset of cells
A2780; A2780, 0.025 µg/ml Bleomycin with 0.5 µM iKu-1, 7 days
  interaction with Bleomycin on growth: synergism
A2780; A2780, 0.5 µM, 7 days
  growth inhibition: do not show growth inhibition
A2780; A2780, 0.025 µg/ml Bleomycin, 0.5 µM iKU-1 or their combination, 7 days
  relative growth assessed by ATPlite kit compared to the control sample treated with 0.5% DMSO: 1.11

From patent EP4342467A1, “KU INHIBITORS FOR USE IN TUMOR THERAPY” (Masarykova Univerzita, priority 2022, dated 2024)
